# Where two headings read alike, the source gives them in different places.
# Experiments:
# 53 CRE and CPE strains = test: MICrange, MIC50, MIC80, MIC90 for 53 bacterial isolates (Example 5, Table 5); format: cell-based
# P. aeruginosa = test: MIC, broth microdilution, CDC/FDA Antibiotic Resistance Isolate Bank (Example 7, Tables 10, 15); format: cell-based; conditions: for MIC: Pseudomonas aeruginosa, read-out: MIC
# [1] = 26 metallo-carbapenemase-producing P. aeruginosa strains, β-lactamase inhibitor µg/mL in parentheses
# [2] = 96 strains of P. aeruginosa, β-lactamase inhibitor µg/mL in parentheses
structure (smiles),measurement,setting,value
"CC(C)(O/N=C(\C(=O)N[C@@H]1C(=O)N2C(C(=O)[O-])=C(C[N+]3(CCNC(=O)c4ccc(O)c(O)c4Cl)CCCC3)CS[C@H]12)c1csc(N)n1)C(=O)O [Cefiderocol, cefiderocol]",MIC90,"53 CRE and CPE strains; 53 CRE and CPE strains, read-out: MIC90",4 µg/mL
same,MIC90,53 CRE and CPE strains; 53 bacterial isolates,4 µg/mL
same,MICrange,53 CRE and CPE strains; 53 bacterial isolates,≤0.06 to 8 µg/mL
same,MIC80,"53 CRE and CPE strains; 53 bacterial isolates, read-out: MIC80",2 µg/mL
same,MIC against 26 metallo-carbapenemase-producing strains MIC50,P. aeruginosa; [1],0.5 µg(mL)
same,MIC against 26 metallo-carbapenemase-producing strains MIC90,P. aeruginosa; [1],2 µg(mL)
same,MIC against 26 metallo-carbapenemase-producing strains MICrange,P. aeruginosa; [1],0.25 - 4 µg(mL)
same,MIC against 96 strains of P. aeruginosa MIC50,P. aeruginosa; [2],0.5 µg(mL)
same,MIC against 96 strains of P. aeruginosa MIC90,P. aeruginosa; [2],2 µg(mL)
same,MIC against 96 strains of P. aeruginosa MICrange,P. aeruginosa; [2],≤0.06 - 4 µg(mL)
same,MIC,"P. aeruginosa; P. aeruginosa KUB No. 579, AR Bank # 447",120 ng/mL
same,MIC,"P. aeruginosa; P. aeruginosa KUB No. 5083, AR Bank # 250",4000 ng/mL
same,MIC,"P. aeruginosa; P. aeruginosa KUB No. 5551, AR Bank # 54",500 ng/mL
same,MIC,"P. aeruginosa; P. aeruginosa KUB No. 5561, AR Bank # 64",2000 ng/mL
same,MIC,"P. aeruginosa; P. aeruginosa KUB No. 5587, AR Bank # 90",1000 ng/mL
same,MIC,"P. aeruginosa; P. aeruginosa KUB No. 5589, AR Bank # 92",2000 ng/mL
same,MIC,"P. aeruginosa; P. aeruginosa KUB No. 5591, AR Bank # 94",2000 ng/mL
same,MIC,"P. aeruginosa; P. aeruginosa KUB No. 5592, AR Bank # 95",500 ng/mL
same,MIC,"P. aeruginosa; P. aeruginosa KUB No. 5597, AR Bank # 100",500 ng/mL
same,MIC,"P. aeruginosa; P. aeruginosa KUB No. 5600, AR Bank # 103",1000 ng/mL
same,MIC,"P. aeruginosa; P. aeruginosa KUB No. 5602, AR Bank # 105",1000 ng/mL
same,MIC,"P. aeruginosa; P. aeruginosa KUB No. 5605, AR Bank # 108",500 ng/mL
same,MIC,"P. aeruginosa; P. aeruginosa KUB No. 5607, AR Bank # 110",250 ng/mL
same,MIC,"P. aeruginosa; P. aeruginosa KUB No. 5608, AR Bank # 111",500 ng/mL
same,MIC,"P. aeruginosa; P. aeruginosa KUB No. 5662, AR Bank # 229",120 ng/mL
same,MIC,"P. aeruginosa; P. aeruginosa KUB No. 5663, AR Bank # 230",500 ng/mL
same,MIC,"P. aeruginosa; P. aeruginosa KUB No. 5664, AR Bank # 231",2000 ng/mL
same,MIC,"P. aeruginosa; P. aeruginosa KUB No. 5665, AR Bank # 232",120 ng/mL
same,MIC,"P. aeruginosa; P. aeruginosa KUB No. 5666, AR Bank # 23",120 ng/mL
same,MIC,"P. aeruginosa; P. aeruginosa KUB No. 5667, AR Bank # 234",250 ng/mL
same,MIC,"P. aeruginosa; P. aeruginosa KUB No. 5668, AR Bank # 235",1000 ng/mL
same,MIC,"P. aeruginosa; P. aeruginosa KUB No. 5669, AR Bank # 236",250 ng/mL
same,MIC,"P. aeruginosa; P. aeruginosa KUB No. 5670, AR Bank # 237",250 ng/mL
same,MIC,"P. aeruginosa; P. aeruginosa KUB No. 5671, AR Bank # 238",1000 ng/mL
same,MIC,"P. aeruginosa; P. aeruginosa KUB No. 5672, AR Bank # 239",2000 ng/mL
same,MIC,"P. aeruginosa; P. aeruginosa KUB No. 5673, AR Bank # 240",1000 ng/mL
same,MIC,"P. aeruginosa; P. aeruginosa KUB No. 5674, AR Bank # 241",250 ng/mL
same,MIC,"P. aeruginosa; P. aeruginosa KUB No. 5675, AR Bank # 242",500 ng/mL
same,MIC,"P. aeruginosa; P. aeruginosa KUB No. 5676, AR Bank # 243",500 ng/mL
same,MIC,"P. aeruginosa; P. aeruginosa KUB No. 5677, AR Bank # 244",250 ng/mL
same,MIC,"P. aeruginosa; P. aeruginosa KUB No. 5678, AR Bank # 245",250 ng/mL
same,MIC,"P. aeruginosa; P. aeruginosa KUB No. 5679, AR Bank # 246",4000 ng/mL
same,MIC,"P. aeruginosa; P. aeruginosa KUB No. 5680, AR Bank # 247",120 ng/mL
same,MIC,"P. aeruginosa; P. aeruginosa KUB No. 5681, AR Bank # 248",500 ng/mL
same,MIC,"P. aeruginosa; P. aeruginosa KUB No. 5682, AR Bank # 249",500 ng/mL
same,MIC,"P. aeruginosa; P. aeruginosa KUB No. 5684, AR Bank # 251",120 ng/mL
same,MIC,"P. aeruginosa; P. aeruginosa KUB No. 5685, AR Bank # 252",2000 ng/mL
same,MIC,"P. aeruginosa; P. aeruginosa KUB No. 5686, AR Bank # 253",120 ng/mL
same,MIC,"P. aeruginosa; P. aeruginosa KUB No. 5687, AR Bank # 254",500 ng/mL
same,MIC,"P. aeruginosa; P. aeruginosa KUB No. 5688, AR Bank # 255",250 ng/mL
same,MIC,"P. aeruginosa; P. aeruginosa KUB No. 5689, AR Bank # 256",2000 ng/mL
same,MIC,"P. aeruginosa; P. aeruginosa KUB No. 5690, AR Bank # 257",250 ng/mL
same,MIC,"P. aeruginosa; P. aeruginosa KUB No. 5691, AR Bank # 258",250 ng/mL
same,MIC,"P. aeruginosa; P. aeruginosa KUB No. 5692, AR Bank # 259",120 ng/mL
same,MIC,"P. aeruginosa; P. aeruginosa KUB No. 5693, AR Bank # 260",250 ng/mL
same,MIC,"P. aeruginosa; P. aeruginosa KUB No. 5694, AR Bank # 261",≤ 60 ng/mL
same,MIC,"P. aeruginosa; P. aeruginosa KUB No. 5695, AR Bank # 262",120 ng/mL
same,MIC,"P. aeruginosa; P. aeruginosa KUB No. 5696, AR Bank # 263",120 ng/mL
same,MIC,"P. aeruginosa; P. aeruginosa KUB No. 5697, AR Bank # 264",250 ng/mL
same,MIC,"P. aeruginosa; P. aeruginosa KUB No. 5698, AR Bank # 265",500 ng/mL
same,MIC,"P. aeruginosa; P. aeruginosa KUB No. 5699, AR Bank # 266",500 ng/mL
same,MIC,"P. aeruginosa; P. aeruginosa KUB No. 5700, AR Bank # 267",120 ng/mL
same,MIC,"P. aeruginosa; P. aeruginosa KUB No. 5701, AR Bank # 268",250 ng/mL
same,MIC,"P. aeruginosa; P. aeruginosa KUB No. 5702, AR Bank # 269",1000 ng/mL
same,MIC,"P. aeruginosa; P. aeruginosa KUB No. 5703, AR Bank # 270",250 ng/mL
same,MIC,"P. aeruginosa; P. aeruginosa KUB No. 5704, AR Bank # 271",250 ng/mL
same,MIC,"P. aeruginosa; P. aeruginosa KUB No. 5705, AR Bank # 272",250 ng/mL
same,MIC,"P. aeruginosa; P. aeruginosa KUB No. 5747, AR Bank # 351",250 ng/mL
same,MIC,"P. aeruginosa; P. aeruginosa KUB No. 5748, AR Bank # 352",500 ng/mL
same,MIC,"P. aeruginosa; P. aeruginosa KUB No. 5749, AR Bank # 353",1000 ng/mL
same,MIC,"P. aeruginosa; P. aeruginosa KUB No. 5750, AR Bank # 354",500 ng/mL
same,MIC,"P. aeruginosa; P. aeruginosa KUB No. 5751, AR Bank # 355",250 ng/mL
same,MIC,"P. aeruginosa; P. aeruginosa KUB No. 5752, AR Bank # 356",1000 ng/mL
same,MIC,"P. aeruginosa; P. aeruginosa KUB No. 5753, AR Bank # 357",4000 ng/mL
same,MIC,"P. aeruginosa; P. aeruginosa KUB No. 5754, AR Bank # 358",500 ng/mL
same,MIC,"P. aeruginosa; P. aeruginosa KUB No. 5755, AR Bank # 359",250 ng/mL
same,MIC,"P. aeruginosa; P. aeruginosa KUB No. 5756, AR Bank # 360",250 ng/mL
same,MIC,"P. aeruginosa; P. aeruginosa KUB No. 5785, AR Bank # 439",500 ng/mL
same,MIC,"P. aeruginosa; P. aeruginosa KUB No. 5786, AR Bank # 440",250 ng/mL
same,MIC,"P. aeruginosa; P. aeruginosa KUB No. 5787, AR Bank # 441",1000 ng/mL
same,MIC,"P. aeruginosa; P. aeruginosa KUB No. 5788, AR Bank # 443",1000 ng/mL
same,MIC,"P. aeruginosa; P. aeruginosa KUB No. 5789, AR Bank # 444",500 ng/mL
same,MIC,"P. aeruginosa; P. aeruginosa KUB No. 5790, AR Bank # 445",500 ng/mL
same,MIC,"P. aeruginosa; P. aeruginosa KUB No. 5793, AR Bank # 449",500 ng/mL
same,MIC,"P. aeruginosa; P. aeruginosa KUB No. 5798, AR Bank # 455",250 ng/mL
same,MIC,"P. aeruginosa; P. aeruginosa KUB No. 5799, AR Bank # 456",250 ng/mL
same,MIC,"P. aeruginosa; P. aeruginosa KUB No. 5800, AR Bank # 457",250 ng/mL
same,MIC,"P. aeruginosa; P. aeruginosa KUB No. 5801, AR Bank # 458",2000 ng/mL
same,MIC,"P. aeruginosa; P. aeruginosa KUB No. 5802, AR Bank # 459",120 ng/mL
same,MIC,"P. aeruginosa; P. aeruginosa KUB No. 5804, AR Bank # 862",500 ng/mL
same,MIC,"P. aeruginosa; P. aeruginosa KUB No. 5805, AR Bank # 863",500 ng/mL
same,MIC,"P. aeruginosa; P. aeruginosa KUB No. 5806, AR Bank # 864",120 ng/mL
same,MIC,"P. aeruginosa; P. aeruginosa KUB No. 5813, AR Bank # 508",1 ng/mL
same,MIC,"P. aeruginosa; P. aeruginosa KUB No. 5814, AR Bank # 509",0.5 ng/mL
same,MIC,"P. aeruginosa; P. aeruginosa KUB No. 5815, AR Bank # 510",≤ 0.06 ng/mL
same,MIC,"P. aeruginosa; P. aeruginosa KUB No. 5816, AR Bank # 511",0.25 ng/mL
same,MIC,"P. aeruginosa; P. aeruginosa KUB No. 5817, AR Bank # 512",1 ng/mL
same,MIC,"P. aeruginosa; P. aeruginosa KUB No. 5818, AR Bank # 513",0.25 ng/mL
same,MIC,"P. aeruginosa; P. aeruginosa KUB No. 5819, AR Bank # 514",0.12 ng/mL
same,MIC,"P. aeruginosa; P. aeruginosa KUB No. 5820, AR Bank # 515",1 ng/mL
same,MIC,"P. aeruginosa; P. aeruginosa KUB No. 5821, AR Bank # 516",0.5 ng/mL
same,MIC,"P. aeruginosa; P. aeruginosa KUB No. 5823, AR Bank # 518",0.25 ng/mL
same,MIC,"P. aeruginosa; P. aeruginosa KUB No. 5831, AR Bank # 526",0.12 ng/mL
same,MIC,"P. aeruginosa; P. aeruginosa KUB No. 5832, AR Bank # 527",0.25 ng/mL
same,MIC,"P. aeruginosa; P. aeruginosa KUB No. 5833, AR Bank # 528",0.25 ng/mL
same,MIC,"P. aeruginosa; P. aeruginosa KUB No. 5834, AR Bank # 529",≤ 0.06 ng/mL

# Source: patent EP4635500A1, “THERAPEUTIC AGENT FOR BACTERIAL INFECTION” (Sumitomo Pharma Co., Ltd., priority 2022, dated 2024)
